Measurements reported in patent US5245051A, “Antipsychotic chroman derivatives of benzodioxanmethylamine” (American Home Products Corporation, priority 1992, dated 1993).

Test system: dopa accumulation
Assay: Inhibition of dopa accumulation in GBL-treated rats (effect on dopamine synthesis, Walters and Roth)
Format: in vivo, rat (male, Sprague-Dawley)
Conditions: sc, limbic (L) brain tissue, rat, read-out: Dopa Accumulation (% inhib. @ 10 mg/kg, sc)
Experimental: The effect of the compounds of the invention on the synthesis of dopamine was established by the method of Walters and Roth, Naunyn-Schmiedeberg's Arch. Pharmacol. 296:5-14, 1976, in which rats (male, Sprague-Dawley, Charles River, 200-350 g) were administered vehicle or test drug ten minutes prior to the administration of gamma butyrolactone (GBL; 750 mg/kg, ip to inhibit dopaminergic impulse flow) and 20 minutes prior to NSD-1015 (100 mg/kg, ip to prevent the conversion of dopa to dopamine). Thirty minutes after NSD-1015 all rats were decapitated and the nucleus accumbens and the striatum were removed for analysis. Following perchloric acid extraction of the tissue, the extracts were placed over alumina columns to collect and concentrate dopa and other catechols. This eluate was then subjected to HPLC analysis using electrochemical detection to quantify the levels of dopa present. Dopamine autoreceptor agonists, under the conditions used above, inhibit dopa accumulation.
For `O=c1ccoc2cc(OCCCNC[C@H]3COc4cc5c(cc4O3)OCO5)ccc12` [Example 2, (S)-7-[3-[[(6,7-Dihydro-1,3-dioxolo[4,5-g][1,4]benzodioxin-6-yl)methyl]amino]propoxy]chromen-4-one], the inhibition at 10 mg/kg was 60.3%.

Test system: mouse locomotor activity
Assay: Reduction of mouse locomotor activity (hypolocomotion)
Format: in vivo, mouse (male, CF-1)
Conditions: 20 min, ip, horizontal activity counts 10 to 20 minutes after dosing
Experimental: The antipsychotic activity of the compounds of the invention was further established by a determination of the compounds' ability to reduce mouse locomotor activity according to the method of Martin and Bendensky, J. Pharmacol. Exp. Therap. 229: 706-711, 1984, in which mice (male, CF-1, Charles River, 20-30 g) were injected with vehicle or various doses of each drug and locomotor activity was measured for 30 minutes using automated infrared activity monitors (Omnitech-8×8 inch open field) located in a darkened room. ED50 's were calculated from the horizontal activity counts collected from 10 to 20 minutes after dosing using a nonlinear regression analysis with inverse prediction.
Molecule `O=c1ccoc2cc(OCCCNC[C@H]3COc4cc5c(cc4O3)OCO5)ccc12` [Example 2, (S)-7-[3-[[(6,7-Dihydro-1,3-dioxolo[4,5-g][1,4]benzodioxin-6-yl)methyl]amino]propoxy]chromen-4-one] has an ED50 of 2.74 mg/kg.

Target: T1, dopamine D2 receptor (Rattus norvegicus, UniProt P61169)
T1 construct: homogenized rat striatal brain tissue; from tissue; host or cells: rat striatal brain tissue homogenate
T1 sequence (P61169 whole entry): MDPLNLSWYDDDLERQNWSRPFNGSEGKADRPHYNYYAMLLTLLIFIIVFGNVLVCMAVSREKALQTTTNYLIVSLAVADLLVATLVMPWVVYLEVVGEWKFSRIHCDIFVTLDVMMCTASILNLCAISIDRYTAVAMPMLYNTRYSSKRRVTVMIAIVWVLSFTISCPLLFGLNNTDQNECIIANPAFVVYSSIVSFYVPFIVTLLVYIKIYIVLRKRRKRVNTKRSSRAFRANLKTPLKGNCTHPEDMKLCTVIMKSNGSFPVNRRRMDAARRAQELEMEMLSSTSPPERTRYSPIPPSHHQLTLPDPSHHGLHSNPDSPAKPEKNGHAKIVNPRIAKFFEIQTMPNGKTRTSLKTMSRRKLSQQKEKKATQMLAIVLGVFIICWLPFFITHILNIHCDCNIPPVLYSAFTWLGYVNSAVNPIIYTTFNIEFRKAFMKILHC
Assay: Affinity for dopamine D2 receptor (3H-quinpirole, homogenized rat striatal brain tissue)
Format: binding
Conditions: not given
Experimental: Affinity for the dopamine D2 receptor was established by a modification of the standard experimental test procedure of Seemen and Schaus, European Journal of Pharmacology 203: 105-109, 1991, wherein homogenized rat striatal brain tissue is incubated with ^3 H-quinpirole and various concentrations of test compound, filtered and washed and counted in a Betaplate scintillation counter.
With `O=c1ccoc2cc(OCCCNCC3COc4cc5c(cc4O3)OCO5)ccc12` (stereo not drawn) [Example 1, 7-[3-[[(6,7-Dihydro-1,3-dioxolo[4,5-g][1,4]benzodioxin-6-yl)methyl]amino]propoxy]chromen-4-one] the inhibition at 0.1 µM was 65%.
In the case of `O=c1ccoc2cc(OCCCNC[C@H]3COc4cc5c(cc4O3)OCO5)ccc12` [Example 2, (S)-7-[3-[[(6,7-Dihydro-1,3-dioxolo[4,5-g][1,4]benzodioxin-6-yl)methyl]amino]propoxy]chromen-4-one], the inhibition at 0.1 µM was 73%.
Work on `O=c1ccoc2ccc(OCCCNCC3COc4cc5c(cc4O3)OCO5)cc12` (stereo not drawn) [Example 5, 6-[3-[[(6,7-Dihydro-1,3-dioxolo[4,5-g][1,4]benzodioxin-6-yl)methyl]amino]propoxy]-chromen-4-one] yielded an inhibition at 0.1 µM of 39%.
Molecule `O=C1COc2cc(OCCCNCC3COc4cc5c(cc4O3)OCO5)ccc21` (stereo not drawn) [Example 10, 6-[3-[(6,7-Dihydro-1,3-dioxolo[4,5-g][1,4]benzodioxin-6-ylmethyl)amino]propoxy)-benzofuran-3-one] has an inhibition at 0.1 µM of 43%.
Work on `O=c1ccoc2cc(OCCCNCC3COc4ccc(O)cc4O3)ccc12` (stereo not drawn) [Example 9, 7-[3-[(7-Hydroxy-2,3-dihydro-benzo[1,4]dioxin-2-ylmethyl)amino]propoxy]chromen-4-one] yielded an inhibition at 0.1 µM of 100%.
Molecule `c1cc2c(cc1OCCCNCC1COc3cc4c(cc3O1)OCO4)CCCO2` (stereo not drawn) [Example 6, N-[3-(Chroman-6-yloxy)-propyl]-6,7-dihydro-1,3-dioxolo[4,5-g][1,4]benzodioxin-6-methanamine] has an inhibition at 0.1 µM of 23%.
In the case of `COc1ccc2c(c1)OC(CNCCCOc1ccc3c(=O)ccoc3c1)CO2` (stereo not drawn) [Example 8, 7-[3-[(7-Methoxy-2,3-dihydro-benzo[1,4]dioxin-2-ylmethyl)amino]propoxy]chromen-4-one], the inhibition at 0.1 µM was 49%.
`O=C1CCOc2cc(OCCCNCC3COc4cc5c(cc4O3)OCO5)ccc21` (stereo not drawn) [Example 4, 7-[3-[[(6,7-Dihydro-1,3-dioxolo[4,5-g][1,4]benzodioxin-6-yl)methyl]amino]propoxy]-chroman-4-one] showed an inhibition at 0.1 µM of 24%.
`c1cc2c(cc1OCCCNCC1COc3cc4c(cc3O1)OCO4)OCCC2` (stereo not drawn) [Example 7, N-[3-(Chroman-7-yloxy)-propyl]-6,7-dihydro-1,3-dioxolo[4,5-g][1,4]benzodioxin-6-methanamine] showed an inhibition at 0.1 µM of 24%.

Test system: 5-HT1A receptor
Assay: not given
Conditions: (-)-isomer versus dextrorotary isomer; cited from earlier work
For `O=C1CC2(CCCC2)CC(=O)N1CCCCNCC1COc2ccccc2O1` (single isomer, unassigned; (-)) [(-)-MDL 72832, 8-[4-(1,4-benzodioxan-2-ylmethylamino)butyl]-8-azaspiro[4.5]decane-7,9-dione], the “binds times as much as the dextrorotary isomer at the 5-HT1A receptor site” value is listed as 32 times.
